Measurements as given in ChEMBL document CHEMBL1150179, “The cytotoxic principles of Solanum incanum” (1990).
≈ marks a conversion by molar mass, not a printed value.

Experiments:
[1] = Cytotoxicity against human PLC/PRF/5 cells by microassay; format: functional; conditions: read-out: ED50 (the source's name)
[2] = tested on: KB; experiment: Cytotoxicity against human KB cells by microassay; format: functional; conditions: read-out: ED50 (the source's name)

Compound | EC50 [1] [µg/mL] | EC50 [2] [µg/mL]
CC[C@H](C[C@@H](O)[C@@H](C)[C@H]1CC[C@H]2C3=CC(=O)[C@H]4[C@H](C)[C@@H](OC(=O)c5ccccc5)CC[C@]4(C)[C@H]3CC[C@]12C)C(C)C [CARPESTEROL] | 8.47 (≈ 15 µM) | 
CCC(=O)O[C@H]1CC[C@]2(C)[C@H]3CC=C4[C@@H]5[C@@H](C)[C@H](C)CC[C@]5(C(=O)O)CC[C@@]4(C)[C@]3(C)CC[C@H]2C1(C)C | 2.54 (≈ 4.95 µM) | 
CCCCCCCCCCCCCCCC(=O)O[C@H]1CC[C@]2(C)[C@H]3CC=C4[C@@H]5[C@@H](C)[C@H](C)CC[C@]5(C(=O)O)CC[C@@]4(C)[C@]3(C)CC[C@H]2C1(C)C | 3.54 (≈ 5.09 µM) | 
C/C=C/C(=O)O[C@H]1CC[C@]2(C)[C@H]3CC=C4[C@@H]5[C@@H](C)[C@H](C)CC[C@]5(C(=O)O)CC[C@@]4(C)[C@]3(C)CC[C@H]2C1(C)C | 2.59 (≈ 4.94 µM) | 
C[C@@H]1CC[C@]2(NC1)O[C@H]1C[C@H]3[C@@H]4CC=C5C[C@@H](O)CC[C@]5(C)[C@H]4CC[C@]3(C)[C@H]1[C@@H]2C [SOLASODINE] | 3.75 (≈ 9.07 µM) | 3.74 (≈ 9.04 µM)
C[C@H]1[C@H](C)CC[C@]2(C(=O)O)CC[C@]3(C)C(=CC[C@@H]4[C@@]5(C)CC[C@H](O)C(C)(C)[C@@H]5CC[C@]43C)[C@H]12 [URSOLIC ACID] | 3.89 (≈ 8.52 µM) | 3.76 (≈ 8.23 µM)
C[C@@H]1CC[C@@]2(NC1)O[C@H]1C[C@H]3[C@@H]4CC=C5C[C@@H](O[C@@H]6O[C@H](CO)[C@@H](O[C@@H]7O[C@@H](C)[C@H](O)[C@@H](O)[C@H]7O)[C@H](O)[C@H]6O)CC[C@]5(C)[C@H]4CC[C@]3(C)[C@H]1[C@@H]2C [KHASIANINE] | 8.6 (≈ 11.9 µM) | 
C[C@@H]1CC[C@@]2(NC1)O[C@H]1C[C@H]3[C@@H]4CC=C5C[C@@H](O[C@@H]6O[C@H](CO)[C@@H](O[C@@H]7O[C@@H](C)[C@H](O)[C@@H](O)[C@H]7O)[C@H](O)[C@H]6O[C@@H]6O[C@@H](C)[C@H](O)[C@@H](O)[C@H]6O)CC[C@]5(C)[C@H]4CC[C@]3(C)[C@H]1[C@@H]2C [SOLAMARGINE] | 1.53 (≈ 1.76 µM) | 
C[C@H]1[C@H](C)CC[C@]2(C(=O)O)CC[C@]3(C)C(=CC[C@@H]4[C@@]5(C)CC[C@H](OC(=O)/C=C/c6ccccc6)C(C)(C)[C@@H]5CC[C@]43C)[C@H]12 | 7.24 (≈ 12.3 µM) | 
C[C@H]1[C@H](C)CC[C@]2(C(=O)O)CC[C@]3(C)C(=CC[C@@H]4[C@@]5(C)CC[C@H](OC(=O)c6ccccc6)C(C)(C)[C@@H]5CC[C@]43C)[C@H]12 | 6.89 (≈ 12.3 µM) | 
